Measured values as given in PMC10177262, “A Novel CD206 Targeting Peptide Inhibits Bleomycin-Induced Pulmonary Fibrosis in Mice” (Cells, 2023).

Test system: BLM-induced lung fibrosis in C57BL/6J mice
Experiment: Late BLM model, comparison and combination with Pirfenidone
Format: in vivo, mouse
Conditions: RP-832c 10 mg/kg QD; Pirfenidone 30 mg/kg Q3D; monotherapy, 21 days; n = 6
Description: C57BL/6J mice were obtained from Envigo, Indianapolis, IN, USA. All animal studies were approved by the IACUC (Murigenics, Inc., Vallejo, CA, USA). After 3 days of acclimation, the mice were challenged with a single 2.5 U/kg body weight dose of bleomycin (BLM) intratracheally (IT), and a vehicle (normal saline) or RP-832c(QD) was administered subcutaneously for 21 days starting 3- and 14-days post-BLM-challenge. Body weights were measured daily, and lung weight was measured at the end of each study.
At the end of the study, the mice were sacrificed using CO2 followed by cervical dislocation (according to IACUC guidelines), and the lungs were collected and fixed in 10% formalin. After 48 h of fixation, the lungs were processed into tissue sections. […] All slides were scanned using a Leica Aperio SC2 scanner and blindly evaluated by two independent pathologists. A total of 10 representative fields of 20× IHC images per tissue section were individually analyzed for the total number of cells/area using a confocal microscope (Olympus, New York, NY, USA). All quantitative data were normalized to appropriate control images.
Pirfenidone and Nintedanib are the only two FDA-approved drugs for lung fibrosis; therefore, we tested any synergistic effects of RP-832c peptide with these drugs. […] Combination therapy was also evaluated (Figure 5A and Figure S5). […]

With `Cc1ccc(=O)n(-c2ccccc2)c1` [Pirfenidone] the “CD206 expression in lung (IHC)” value was “decreased CD206 expression”.
